Measured values from patent US8796314B2, “Heteroaryls and uses thereof” (Millennium Pharmaceuticals, Inc., priority 2009, dated 2014).

Each compound was assayed against T1, PI3Kalpha (Homo sapiens, UniProt P42336) (assay: Human PI3Kα enzyme assay (HTRF)). Settings: ATP 25 uM, di-C8 PI(4,5)P2, 30 minutes at room temperature, values given only as potency bins.
T1 construct: His (N); host or cells: SF9 insect cells (baculovirus)
Type: biochemical
Text: The catalytic subunits of PI3Ks are cloned into either pDEST8 (p110 alpha) or pDEST10 (p110beta, p110delta, and p110gamma) as N-terminal His tagged fusion proteins using the Gateway system (Invitrogen, catalog#11804-010 for pDEST8 and 11806-015 for pDEST10). The sequences are verified before recombinant protein expression using the Baculovirus Expression System with Gateway® Technology. The accession numbers for the subunits are as follows:
The regulatory subunits of PI3Ks are cloned into pDEST8 as un-tagged protein using the Gateway system (Catalog#11804-010). The sequences are verified before recombinant protein expression using the Baculovirus Expression System with Gateway® Technology. The accession numbers for the subunits are as following: p85 alpha (GB: BC030815) p101 (GB: AB028925)
For expression of the p110 complexes, the p85 (MOI of 4) is co-infected with p110 alpha, beta, and delta respectively (1 MOI) in SF9 cells and harvested at 60 hours post co-infection. P110 gamma was infected at 1 MOI and harvested at 60 hours post infection.
For purification, PI3Ks are purified by Ni-NTA Agarose (Qiagen #30250) followed by Mono Q 10/100 GL (Ge Healthcare #17-5167-01). VPS34 is purified by Glutathione Sepharose 4 Fast Flow (GE Healthcare #17-5132-03) followed by HiTrap Q (GE Healthcare #17-1153-01).
1) Human PI3Kα Enzyme Assay Method
0.5 uL compounds in DMSO are added to wells of a 384 well microtitre plate (Corning 3575). At room temperature: 10 ul PI3K reaction buffer (50 mM Hepes, 5 mM DTT, 150 mM NaCl, 10 mM beta-glycerophosphate, 10 mM MgCl2, 0.25 mM sodium cholate and 0.001% CHAPS, pH 7.00) containing ATP (25 uM, Promega) is added followed immediately by 10 ul PI3K reaction buffer containing di-C8 PI(4,5)P2 (3.5 uM, CellSignals) and PI3Kalpha (0.4875 nM, Millennium Protein Sciences Group) and the mixture is incubated with shaking at room temperature for 30 minutes. Then 5 ul PI3K stop mix (50 mM Hepes, 5 mM DTT, 150 mM NaCl, 0.01% Tween-20, 15 mM EDTA and 25 nM biotin-PI(3,4,5)P3 (Echelon) is added to quench the reaction followed immediately by addition of 5 ul HTRF detection mix (50 mM Hepes, 5 mM DTT, 150 mM NaCl, 0.01% Tween-20, 40 mM KF, 10 nM GST:GRP-1 PH domain (Millennium Protein Sciences Group), 15 nM Streptavidin-XL (CisBio) and 0.375 nM anti-GST Eu++ antibody (CisBio) at pH 7.00). The plates are then incubated for 1 hour at room temperature with shaking and then read on a BMG PheraStar Plus reader.

T1 sequence (P42336 whole entry): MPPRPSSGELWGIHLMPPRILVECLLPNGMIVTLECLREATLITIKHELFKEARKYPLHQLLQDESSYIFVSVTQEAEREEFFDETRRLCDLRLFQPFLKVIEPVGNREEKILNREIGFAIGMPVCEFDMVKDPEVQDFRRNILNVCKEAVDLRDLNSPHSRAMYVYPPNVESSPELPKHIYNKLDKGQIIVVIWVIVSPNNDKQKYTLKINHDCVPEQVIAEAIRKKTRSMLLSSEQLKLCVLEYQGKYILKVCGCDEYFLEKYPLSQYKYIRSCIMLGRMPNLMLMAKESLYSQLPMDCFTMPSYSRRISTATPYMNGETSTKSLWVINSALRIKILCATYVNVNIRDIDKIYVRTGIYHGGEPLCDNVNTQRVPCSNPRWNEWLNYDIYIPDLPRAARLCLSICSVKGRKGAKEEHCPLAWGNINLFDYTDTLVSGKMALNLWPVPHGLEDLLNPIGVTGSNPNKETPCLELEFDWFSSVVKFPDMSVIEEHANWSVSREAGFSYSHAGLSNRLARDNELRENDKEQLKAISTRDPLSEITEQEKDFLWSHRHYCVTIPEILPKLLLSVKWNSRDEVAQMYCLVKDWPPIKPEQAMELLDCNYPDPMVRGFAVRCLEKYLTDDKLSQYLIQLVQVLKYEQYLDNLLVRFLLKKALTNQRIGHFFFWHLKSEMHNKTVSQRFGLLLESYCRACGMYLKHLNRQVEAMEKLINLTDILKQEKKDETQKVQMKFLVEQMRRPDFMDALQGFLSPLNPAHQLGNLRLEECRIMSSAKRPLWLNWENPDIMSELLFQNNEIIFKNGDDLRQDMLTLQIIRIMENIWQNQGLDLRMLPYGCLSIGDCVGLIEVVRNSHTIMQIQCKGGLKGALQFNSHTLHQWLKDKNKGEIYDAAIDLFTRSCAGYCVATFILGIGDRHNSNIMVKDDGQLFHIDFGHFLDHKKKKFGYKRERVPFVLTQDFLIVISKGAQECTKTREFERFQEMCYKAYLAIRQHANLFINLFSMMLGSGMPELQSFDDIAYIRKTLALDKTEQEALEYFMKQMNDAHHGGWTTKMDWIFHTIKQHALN
T1 sequence (P27986 whole entry partner): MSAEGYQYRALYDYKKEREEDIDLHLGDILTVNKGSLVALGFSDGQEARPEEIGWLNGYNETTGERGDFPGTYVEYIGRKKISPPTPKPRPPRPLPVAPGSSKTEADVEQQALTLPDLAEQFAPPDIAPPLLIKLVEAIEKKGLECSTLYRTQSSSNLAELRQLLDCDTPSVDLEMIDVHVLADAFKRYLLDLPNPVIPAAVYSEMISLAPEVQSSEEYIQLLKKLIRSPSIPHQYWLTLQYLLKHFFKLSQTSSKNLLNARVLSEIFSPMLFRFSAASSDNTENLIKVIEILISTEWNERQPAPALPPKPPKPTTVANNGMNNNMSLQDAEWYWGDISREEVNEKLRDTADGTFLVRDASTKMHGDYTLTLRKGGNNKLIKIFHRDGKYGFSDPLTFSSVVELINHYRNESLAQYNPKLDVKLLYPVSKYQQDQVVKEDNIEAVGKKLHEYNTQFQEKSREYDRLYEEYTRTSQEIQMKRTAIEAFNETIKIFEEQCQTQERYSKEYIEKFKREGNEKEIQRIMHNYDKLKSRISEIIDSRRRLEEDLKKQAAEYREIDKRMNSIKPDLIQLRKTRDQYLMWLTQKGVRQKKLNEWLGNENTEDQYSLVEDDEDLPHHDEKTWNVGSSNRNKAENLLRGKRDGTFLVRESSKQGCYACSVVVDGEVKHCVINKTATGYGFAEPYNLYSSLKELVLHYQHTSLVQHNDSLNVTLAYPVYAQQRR

| SMILES | IC50 |
| --- | --- |
| CS(=O)(=O)Nc1cc(-c2sc(-c3nnc[nH]3)c(-c3ccc(Cl)cc3Cl)c2C#N)ccn1 [Compound 4] | > 1 µM |
| Cc1cnc(N)nc1-c1sc(-c2nnc[nH]2)c(-c2ccc(Cl)cc2Cl)c1C#N [Compound 8] | > 1 µM |
| COc1cc(-c2sc(-c3nnc[nH]3)c(-c3ccc(Cl)cc3Cl)c2C#N)ccn1 [Compound 24] | > 1 µM |
| COc1ccc(CNc2cc(-c3sc(-c4nnc[nH]4)c(-c4ccc(Cl)cc4Cl)c3C#N)ccn2)c(OC)c1 [Compound 33] | > 1 µM |
| CNC(=O)c1cc(-c2sc(-c3nnc[nH]3)c(-c3ccc(Cl)cc3Cl)c2C#N)ccn1 [Compound 44] | > 1 µM |
| CNc1cc(-c2cc(-c3ccc(Cl)cc3Cl)c(-c3ncc[nH]3)s2)ncn1 [Compound 84] | > 1 µM |

More lines, now with the values ahead:

| IC50 | SMILES |
| --- | --- |
| > 1 µM | N#Cc1c(-c2ccnc(NC(=O)c3ccccc3)c2)sc(-c2nnc[nH]2)c1-c1ccc(Cl)cc1Cl [Compound 1] |
| < 0.1 µM | CNc1nccc(-c2sc(-c3ncc[nH]3)c(-c3ccc(Cl)cc3Cl)c2C#N)n1 [Compound 16] |
| 0.1 to 1 µM | N#Cc1c(-c2ccnc(N)c2)sc(C(N)=O)c1-c1ccc(Cl)cc1Cl [Compound 60] |
| < 0.1 µM | N#Cc1c(-c2ccnc(N)c2)sc(-c2cnc[nH]2)c1-c1ccc(Cl)cc1Cl [Compound 80, 2-(2-aminopyridin-4-yl)-4-(2,4-dichlorophenyl)-5-(1H-imidazol-5-yl)thiophene-3-carbonitrile] |
